Laboratory results as given in ChEMBL document CHEMBL1136422, “Synthesis, in vitro, and in vivo evaluation of phosphate ester derivatives of combretastatin A-4” (Bioorg Med Chem Lett, 2003).

Assays:
[1] = In vitro cytotoxicity evaluated in mouse heart endotheliaoma cell (MHEC5-T) after incubation of the cells for 1 hr; type: functional, cell-based
[2] = In vitro cytotoxicity evaluated in mouse heart endotheliaoma cell (MHEC5-T) after incubation of the cells for 5 days; type: functional, cell-based; conditions: 120 h
[3] = test system: Mus musculus; experiment: Vascular shutdown expressed as vessel density decrease in percent of the control at the dose of 100 mg/kg; type: functional
[4] = test system: HT-29; experiment: Cytotoxicity evaluated against colon cancer cell line (HT-29); type: functional, cell-based; conditions: Homo sapiens

Structure (SMILES)	IC50 [1] [µM]	IC50 [2] [µM]	Vessel density decrease vs control [3] [%]	IC50 [4] [µM]
COc1ccc(/C=C\c2cc(OC)c(OC)c(OC)c2)cc1OP(=O)(O)Oc1cccc(Cl)c1.N	> 25	3	90	
COc1ccc(/C=C\c2cc(OC)c(OC)c(OC)c2)cc1OP(=O)([O-])[O-].[Na+].[Na+] [FOSBRETABULIN DISODIUM]	0.8	0.002	88	0.2
COc1ccc(/C=C\c2cc(OC)c(OC)c(OC)c2)cc1O [COMBRETASTATIN A4]	1.05	0.004	71	
COc1ccc(/C=C\c2cc(OC)c(OC)c(OC)c2)cc1OP(=O)(O)OC1CCCCC1.N	> 25	3	0	
COc1ccc(/C=C\c2cc(OC)c(OC)c(OC)c2)cc1OP(=O)(O)OCC(F)(F)F.N	10	0.06	0	
COc1ccc(/C=C\c2cc(OC)c(OC)c(OC)c2)cc1OP(=O)(O)OC.N	38	0.07	0	
CCCCCCCCOP(=O)(O)Oc1cc(/C=C\c2cc(OC)c(OC)c(OC)c2)ccc1OC.N	25	0.07	89	
CCCCOP(=O)(OCCCC)Oc1cc(/C=C\c2cc(OC)c(OC)c(OC)c2)ccc1OC	8	0.26	0	
COc1ccc(/C=C\c2cc(OC)c(OC)c(OC)c2)cc1OP(=O)(OC)OC	35	0.13	20	
COc1ccc(/C=C\c2cc(OC)c(OC)c(OC)c2)cc1OP(=O)([O-])Oc1cc(/C=C\c2cc(OC)c(OC)c(OC)c2)ccc1OC.[Na+]	> 25	0.51	0	
COc1ccc(/C=C\c2cc(OC)c(OC)c(OC)c2)cc1OCCCS(=O)(=O)[O-].[Na+]	> 25	> 25	10	
